Results on one compound are retold here after patent US6689803B2, “Compositions and methods for treating surgical adhesions” (Angiotech Pharmaceuticals, Inc., priority 1996, dated 2004).

Like-named read-outs stand apart in the source and are kept apart here. Marks after values point to notes of the source that are not given here.

The subject of one data set is TR1 T-cell clones. Briefly: T cell response to antigenic stimulus (tritiated thymidine incorporation). The format is cell-based. To be noted: micellar formulation; GP68-88 or conA; added at start or 24 hours after stimulation; 48 hours.
The subject of a further data set is chondrocytes. Briefly: Viability of non-proliferating chondrocytes (trypan blue). The format is cell-based. To be noted: up to 10^−5 M, 72 hours. From the text: While it is important that a disease-modifying agent be capable of strongly inhibiting a variety of inappropriate cellular activities (proliferation, inflammation, proteolytic enzyme production) which occur in excess during the development of chronic inflammation, it must not be toxic to the normal tissues. It is particularly critical that normal cells not be damaged, as this would lead to progression of the disease.

A further data set deals with subcutaneous tumors. Briefly: Subcutaneous tumors in mice treated with paste. In kind it is in vivo. To be noted: paclitaxel/gelatin/PCL paste.
The next data set relates to adhesion formation. Description: Rabbit uterine horn model of surgical adhesions. In kind it is in vivo. Here is the method:
New Zealand female white rabbits were anesthetized and a midline incision made through the skin and the abdominal wall. Both uterine horns were located and exteriorized. Using a French Catheter Scale, the diameter of each uterine horn was measured and recorded. Only those rabbits with uterine horns measuring size 8 to 16, inclusive, on the French scale were used. Using a number 10 scalpel blade, 5 cm lengths of each uterine horn, approximately 1 cm from the uterine bifurcation, were scraped, 40 times per side, until punctuate bleeding. Hemostasis was achieved by tamponade.
Test agent (0.4 to 2.5 ml) was applied over the horns via an 18 gauge needle. Uterine horns were replaced into the pelvis and the abdominal incision closed.
Body weights of the animals were recorded. The abdomen was opened and the surgical site inspected. Adhesions were graded by a blinded observer as follows:
The total length (cm) of each uterine horn involved with adhesions was estimated and recorded.
Adhesions were grades as 0 (absent), 1.0 (filmy adhesions) and 2.0 (tenacious, requiring sharp dissection).
The degree of uterine convolution was recorded according to the following scale:
No convolution: Straight lengths of adherent or non-adherent horns which are clearly discerned.
Completely convoluted: It is impossible to discern uterine anatomy because the horn is completely entangled.

The subject of a further data set is neutrophils. Description: Neutrophil chemiluminescence assay (opsonized CPPD crystals or zymosan). The note with it: Homo sapiens, Neutrophil, 28 μM, read-out: inhibition of the peak chemiluminescence response. The format is cell-based, human. The protocol: All experiments that studied neutrophil responses to crystals or zymosan in the presence of paclitaxel were performed using plasma opsonized CPPD or zymosan. Opsonization of crystals or zymosan was done with 50% heparinized plasma at a concentration of 75 mg of CPPD or 12 mg of zymosan per ml of 50% plasma Crystals or zymosan were incubated with plasma for 30 minutes at 37° C. and then washed in excess HBSS.
Neutrophil viability and purity was always greater than 90%.
A stock solution of LY290181 at 100 μM in HBSS was freshly prepared.
All chemiluminescence studies were performed at a cell concentration of 5,000,000 cells/ml in HBSS with CPPD (50 mg/ml). In all experiments 0.5 ml of cells was added to 25 mg of CPPD or 0.5 mg of zymosan in 1.5 ml capped Eppendorf tubes. 10 μl of luminol dissolved in 25% DMSO in HBSS was added to a final concentration of 1 μM and the samples were mixed to initiate neutrophil activation by the crystals or zymosan. Chemiluminescence was monitored using an LKB Luminometer (Model 1250) at 37° C. for 20 minutes with shaking immediately prior to measurements to resuspend the crystals or zymosan. Control tubes contained cells, drug and luminol (crystals absent).

Data set [1] has as its system restenosis / intimal hyperplasia. Briefly: Rat carotid artery balloon injury model of restenosis, perivascular treatment. In kind it is in vivo. To be noted: paclitaxel-loaded (20%) polymers (EVA film or PCL paste), 2.5 mg perivascular; 14 and 28 days. The protocol:
WISTAR rats weighing 250 to 300 g were anesthetized by the intramuscular injection of Innovar (0.33 ml/kg). Once sedated they were then placed under Halothane anesthesia After general anesthesia was established, fur over the neck region was shaved, the skin clamped and swabbed with betadine. A vertical incision was made over the left carotid artery and the external carotid artery exposed. Two ligatures were placed around the external carotid artery and a transverse arteriotomy was made. […] The endothelium was denuded by passing the inflated balloon up and down the carotid artery three times. The catheter was then removed and the ligature tied off on the left external carotid artery. […] The wound was then closed.

Data set [2] deals with MDAY-D2 tumors on the CAM. Briefly: Tumor angiogenesis: MDAY-D2 tumors on the CAM. The format is in vivo, chick. To be noted: 20% paclitaxel-loaded thermopaste. The protocol:
Fertilized domestic chick embryos are incubated for 4 days prior to having their shells removed. The egg contents are emptied by removing the shell located around the airspace, severing the interior shell membrane, perforating the opposite end of the shell and allowing the egg contents to gently slide out from the blunted end. The contents are emptied into round-bottom sterilized glass bowls, covered with petri dish covers and incubated at 90% relative humidity and 3% carbon dioxide.
MDAY-D2 cells (a murine lymphoid tumor) are injected into mice and allowed to grow into tumors weighing 0.5-1.0 g. The mice are sacrificed, the tumor sites wiped with alcohol, excised, placed in sterile tissue culture media, and diced into 1 mm pieces under a laminar flow hood. Prior to placing the dissected tumors onto the […] chick embryos, CAM surfaces are gently scraped with a 30 gauge needle to ensure tumor implantation. The tumors are then placed on the CAMs after 8 days of incubation (4 days after deshelling), and allowed to grow on the CAM for four days to establish a vascular supply. Four embryos are prepared utilizing this method, each embryo receiving 3 tumors. On day 12, each of the 3 tumors on the embyros received either 20% paclitaxel-loaded thermopaste, unloaded thermopaste, or no treatment. The treatments were continued for two days before the results were recorded.
The explanted MDAY-D2 tumors secrete angiogenic factors which induce the ingrowth of capillaries (derived from the CAM) into the tumor mass and allow it to continue to grow in size. Since all the vessels of the tumor are derived from the CAM, while all the tumor cells are derived from the explant, it is possible to assess the effect of therapeutic interventions on these two processes independently. This assay has been used to determine the effectiveness of paclitaxel-loaded thermopaste on: (a) inhibiting the vascularization of the tumor and (b) inhibiting the growth of the tumor cells themselves.

Description for TR1 T-cell clones: Tritiated thymidine incorporation was determined as a measure of T-cell proliferation in response to peptide or conA stimulation.

In the case of `CC(=O)O[C@H]1C(=O)[C@@]2(C)[C@H]([C@H](OC(=O)c3ccccc3)[C@]3(O)C[C@H](OC(=O)[C@H](O)[C@@H](NC(=O)c4ccccc4)c4ccccc4)C(C)=C1C3(C)C)[C@]1(OC(C)=O)CO[C@@H]1C[C@@H]2O` [paclitaxel], the “concentration at which T-cell proliferation was (completely) inhibited” value in the data set with TR1 T-cell clones was found to be 0.02 µM. Also, in the data set on chondrocytes, the “viability of normal non-proliferating cells” value is “does not affect the viability”. The tumor mass entry in the data set on subcutaneous tumors is given as “significantly reduced the tumor mass”. In addition, the “Adhesion-Free: number of uterine horns free of adhesions/total” value with adhesion formation (0.1% in vehicle) is recorded as 0/20; in the data set with adhesion formation (1% in vehicle), 0/18. Besides, the figures for the “Convolution: number of uterine horns with no convolution/partial convolution/full convolution” value in the data set with adhesion formation (0.1% in vehicle) and with adhesion formation (1% in vehicle) were 16/2/2† and 18/0/0‡, respectively. For the same compound, the “Extent: length of uterine horn with adhesions (± Standard Error of the Mean)” value is listed as 2.925 (0.338)* cm in the data set on adhesion formation (0.1% in vehicle); 2.925±0.338 cm in the data set with adhesion formation (0.1% in vehicle, listed as Paclitaxel); 2.028±0.374 cm in the data set with adhesion formation (1% in vehicle); 2.028 (0.374)** cm in the data set with adhesion formation (1% in vehicle, listed as paclltaxel). The inhibition at 28 µM with neutrophils (plasma opsonized CPPD) came out at 52%; in the data set with neutrophils (plasma opsonized zymosan), 45%. Further, the restenosis result in data set [1] is “completely prevented restenosis”. In addition, the “blood vessels in the immediate periphery of the tumor” value in data set [2] (two days) turned out to be 14. The “small capillaries in the tumor mass” value in data set [2] (two days) was 3-4. The tumor vascularity result in data set [2] (all 4 embryos) was “suppressing tumor vascularity”.
